According to the NIST ThermoML archive (doi:10.1021/je800325d):

Experiments:
[1] = refractive index (Na D-line) (dimensionless); details: 101.33 kPa, Liquid, Standard Abbe refractometry
[2] = 101.33 kPa, Liquid; for viscosity: Capillary tube (Ostwald / Ubbelohde) method
[3] = xn = mol fraction of the nth substance listed; details: 101 kPa, Liquid
[4] = refractive index (Na D-line) (dimensionless); xn = mol fraction of the nth substance listed; details: 101 kPa, Liquid, Standard Abbe refractometry

Cc1cccc(C)c1 [1,3-dimethylbenzene]
Details	refractive index, [1]	viscosity, [2] [mPa·s]
303.15 K	1.492	0.557
313.15 K	1.4901	0.508

[2], Pycnometric method
Details	mass density [kg/m3]
303.15 K	855.3
313.15 K	847.1

Cc1ccccc1C [1,2-dimethylbenzene]
Details	refractive index, [1]	viscosity, [2] [mPa·s]
303.15 K	1.5001	0.695
313.15 K	1.4981	0.621

[2], Pycnometric method
Details	mass density [kg/m3]
303.15 K	871.5
313.15 K	863.3

Cc1ccc(C)cc1 [1,4-dimethylbenzene]
Details	refractive index, [1]	viscosity, [2] [mPa·s]
303.15 K	1.4911	0.566
313.15 K	1.4902	0.517

[2], Pycnometric method
Details	mass density [kg/m3]
303.15 K	852.1
313.15 K	843.5

COC(=O)c1ccccc1 [methyl benzoate]
Details	refractive index, [1]	viscosity, [2] [mPa·s]
303.15 K	1.5127	1.679
313.15 K	1.5083	1.414

[2], Pycnometric method
Details	mass density [kg/m3]
303.15 K	1078.8
313.15 K	1069.2

COC(=O)c1ccccc1 [methyl benzoate] + Cc1cccc(C)c1
Details	mass density, [3] [kg/m3]	refractive index, [4]	viscosity, [3] [mPa·s]
303.15 K, x1 = 0.1071	878.7	1.4933	0.609
303.15 K, x1 = 0.203	900.2	1.4943	0.672
303.15 K, x1 = 0.3034	922.3	1.4954	0.739
303.15 K, x1 = 0.3924	941.4	1.4962	0.824
303.15 K, x1 = 0.4909	962.7	1.4973	0.923
303.15 K, x1 = 0.5978	985.7	1.5004	1.023
303.15 K, x1 = 0.6867	1004.6	1.5033	1.134
303.15 K, x1 = 0.8125	1029.6	1.5069	1.316
303.15 K, x1 = 0.8734	1043.8	1.5093	1.403
303.15 K, x1 = 0.9518	1059.6	1.5107	1.565
313.15 K, x1 = 0.1071	870.6	1.4911	0.544
313.15 K, x1 = 0.203	891.9	1.4919	0.598
313.15 K, x1 = 0.3034	914.2	1.4927	0.654
313.15 K, x1 = 0.3924	933.2	1.4933	0.729
313.15 K, x1 = 0.4909	954.4	1.4941	0.804
313.15 K, x1 = 0.5978	977.1	1.496	0.892
313.15 K, x1 = 0.6867	995.8	1.4987	0.978
313.15 K, x1 = 0.8125	1021.9	1.502	1.122
313.15 K, x1 = 0.8734	1034.8	1.504	1.191
313.15 K, x1 = 0.9518	1050.7	1.5064	1.317

CC(=O)OCCC(C)C [3-methylbutyl ethanoate] + Cc1ccc(C)cc1
Details	mass density, [3] [kg/m3]	refractive index, [4]	viscosity, [3] [mPa·s]
303.15 K, x1 = 0.096	852.4	1.4821	0.573
303.15 K, x1 = 0.1713	853.6	1.4749	0.584
303.15 K, x1 = 0.2823	854.5	1.4645	0.6
303.15 K, x1 = 0.3819	856.7	1.4554	0.617
303.15 K, x1 = 0.4503	857.8	1.4495	0.628
303.15 K, x1 = 0.5438	858.1	1.4397	0.645
303.15 K, x1 = 0.6472	858.7	1.4293	0.664
303.15 K, x1 = 0.7467	859.7	1.4193	0.684
303.15 K, x1 = 0.8487	860.1	1.41	0.704
303.15 K, x1 = 0.9398	861	1.4017	0.722
313.15 K, x1 = 0.096	844.8	1.4811	0.517
313.15 K, x1 = 0.1713	845.9	1.474	0.525
313.15 K, x1 = 0.2823	846.3	1.4621	0.537
313.15 K, x1 = 0.3819	847.5	1.4523	0.549
313.15 K, x1 = 0.4503	848.7	1.4454	0.556
313.15 K, x1 = 0.5438	849.6	1.4356	0.57
313.15 K, x1 = 0.6472	850.1	1.4248	0.584
313.15 K, x1 = 0.7467	850.7	1.4147	0.6
313.15 K, x1 = 0.8487	851.3	1.4056	0.615
313.15 K, x1 = 0.9398	851.6	1.3984	0.634

CCc1ccccc1 [ethylbenzene]
Details	mass density, [2] [kg/m3]	refractive index, [1]	viscosity, [2] [mPa·s]
303.15 K	857.6	1.491	0.597
313.15 K	849.2	1.4891	0.538

CC(=O)OCCC(C)C [3-methylbutyl ethanoate]
Details	refractive index, [1]	viscosity, [2] [mPa·s]
303.15 K	1.3959	0.741
313.15 K	1.3945	0.649

[2], Pycnometric method
Details	mass density [kg/m3]
303.15 K	862.3
313.15 K	852.8
